Test results as given in ChEMBL document CHEMBL3352025, “Evaluation of the neuroprotective activity of stansin 6, a resin glycoside from Ipomoea stans” (Bioorg Med Chem Lett, 2014).
Active and inactive are the calls of the source. The rule behind the calls is not given here.

Columns and labels:
[1] = tested on: Rattus norvegicus; assay: Anticonvulsant activity in rat assessed as protection against kainic acid-induced convulsions at 10 mg/kg, ip; assay type: functional, organism-based; set-up: dose 10 mg/kg
[2] = tested on: Rattus norvegicus; assay: Decrease in astrocyte reactivity in kainic acid-induced rat brain inCA3 region at 10 mg/kg, ip by GFAP staining; assay type: functional, organism-based; set-up: dose 10 mg/kg
[3] = tested on: Rattus norvegicus; assay: Neuroprotective activity in kainic acid-induced rat assessed as decrease in hippocampal neuronal loss at 10 mg/kg, ip; assay type: functional, organism-based; set-up: dose 10 mg/kg
[4] = tested on: Rattus norvegicus; assay: Toxicity in rat assessed as convulsions at 10 to 80 mg/kg, ip; assay type: organism-based; set-up: dose 10-80 mg/kg, route intraperitoneal; conditions: in vivo
[5] = tested on: Rattus norvegicus; assay: Anticonvulsant activity in rat assessed as protection against kainic acid-induced death at 10 mg/kg, ip; assay type: functional, organism-based; set-up: dose 10 mg/kg
[6] = tested on: Rattus norvegicus; assay: Reduction in IL-1beta in kainic acid-induced rat brain at 10 mg/kg, ip; assay type: functional, organism-based; set-up: dose 10 mg/kg
[7] = tested on: Rattus norvegicus; assay: Reduction in TNFalpha in kainic acid-induced rat brain at 10 mg/kg, ip; assay type: functional, organism-based; set-up: dose 10 mg/kg
[8] = tested on: Rattus norvegicus; assay: Toxicity in rat assessed as seizures at 10 to 80 mg/kg, ip; assay type: organism-based; set-up: dose 10-80 mg/kg, route intraperitoneal; conditions: in vivo
[9] = tested on: Rattus norvegicus; assay: Anticonvulsant activity in rat assessed as protection against kainic acid-induced seizures in denate gyrus at 10 mg/kg, ip; assay type: functional, organism-based; set-up: dose 10 mg/kg
[10] = tested on: Rattus norvegicus; assay: Reduction in degeneration pattern in kainic acid-induced rat brain inCA3 region at 10 mg/kg, ip by GFAP staining; assay type: functional, organism-based; set-up: dose 10 mg/kg
[11] = tested on: Rattus norvegicus; assay: Toxicity in rat assessed as hippocampal damage at 10 to 80 mg/kg, ip; assay type: organism-based, Hippocampus; set-up: dose 10-80 mg/kg, route intraperitoneal; conditions: in vivo

Compound: CCCCC[C@H]1CCCCCCCCCC(=O)O[C@@H]2[C@@H](O[C@@H]3O[C@H](C)[C@@H](OC(=O)[C@@H](C)CC)[C@H](O)[C@H]3O)[C@H](C)O[C@@H](O[C@H]3[C@H](O[C@H]4[C@H](O1)O[C@H](C)[C@@H](O)[C@@H]4O)O[C@H](COC(=O)[C@H](C)[C@@H](C)O)[C@@H](O)[C@@H]3O)[C@@H]2OC(=O)[C@@H](C)CC [ORIZABIN XX]
- inhibition [1]: Active
- Activity [2]: Active
- Activity [3]: Active
- Activity [4]: Non-toxic
- Activity [5]: Active
- Activity [6]: Active
- Activity [7]: Active
- Activity [8]: Non-toxic
- Activity [9]: Active
- Activity [10]: Active
- Activity [11]: Non-toxic
